Measured values reported in patent US8329413B2, “Glycoproteomic probes for fluorescent imaging of fucosylated glycans in vivo” (Academia Sinica, priority 2007, dated 2012).

Columns and labels:
[1] = test system: human alpha1-acid glycoprotein (AGP); assay: Fluorescent labeling of AGP fucosylated by FucT V, SDS/PAGE visualized by UV light; format: biochemical; conditions: AGP fucosylated with FucT V and GDP-fucose analog 8, 9 or 10, then labeled with 1a or 1b
From the text: (§1) Briefly, fucose analogs 4 and 5 are converted to the corresponding 1-bromides, which then are substituted directly by a phosphate group. […] Therefore, TiBr4 is used instead, as described by Srivastava. The fucose-1-phosphates are converted to the corresponding GDP-fucose analogs by using 1H-tetrazole as a catalyst. The tolerability of GDP-fucose analogs 8 and 9 for human alpha-1,3-fucosyltranseferases (FucTs) II-VII is confirmed by using a standard microtiter plate assay. They are then used to elaborate the glycoconjugate substrate, human alpha1-acid glycoprotein (AGP), an acute-phase protein. As fucosylation of AGP is associated with inflammatory diseases, the degree of fucosylation of AGP could be a potential diagnostic or prognostic marker. AGP was fucosylated by using FucT V in the presence of GDP-fucose analogs 8 or 9. After gel filtration, the fucosylated AGP is labeled by using the corresponding naphthalimide 1a or 1b for 4 h at room temperature. Labeled protein is analyzed by SDS/PAGE and visualized by UV light (365 nm). […] Treated protein was separated by SDS/PAGE and visualized by UV light (Top) and Coomassie blue staining (CBB) (Middle). (Bottom) Modified GDP-fucose.
Human alpha1-acid glycoprotein (0.33 mg/mL), pretreated with alpha-fucosidase, was incubated with human alpha-1,3-fucosyltransferase V (100 mU/mL) in MOPS buffer (50 mM, pH 7.2) containing 150 mM NaCl, 10 mM MnCl2, 4 mM ATP, 0.2 mM GDP-fucose analog (8-10). After incubation at 37° C. for 8 h, additional GDP-fucose derivative (final 0.4 mM) was added and the reaction mixture was incubated at 37° C. for 12 h. […]
The fucosylated glycoconjugate was dissolved in HEPES buffer (50 mM, pH 7.6), and added to a solution containing CuSO4 (0.2 mM), 1.0 mM sodium ascorbate, the tris(triazolyl)amine ligand (20) (0.2 mM, stock in DMSO), and the appropriate naphthalimide ligation probe 1a or 1b (0.1 mM, stock in DMSO, final concentration of DMSO; 10%)). After 1 h at room temperature, the mixture was passed through NAP-5 column in water and lyophilized, and analyzed by SDS-PAGE.

[2] = Decomposition of probe 1b by LC-MS; format: physicochemical
Experimental: Bicyclic aromatic azides are known to easily decompose by thermolysis or photolysis through a highly reactive nitrene intermediate (FIG. 12).
Thus we analyzed the decomposition of 1b using LC-MS (FIG. 13). […] The compounds were monitored at 350 nm by using an Agilent SB C8 50×4.6 mm column. (a) 1b. (b) Cycloaddition reaction with 7. (c) After 12 h incubation without 7. (d) The synthesized 4-amino derivative 1c (1). See typical experimental procedure of cycloaddition for the reaction conditions.
In the presence of 6-alkyne fucose 2b, probe 1b was completely converted into the product 3b. However, without 6-alkyne fucose […], probe 1b decomposed into a fluorescent compound with a molecular weight corresponding to the 4-amino derivative 1c ([M+H]^+ 241; ca. 80% conversion after 12 h incubation at room temperature).

[3] = Fluorescence spectra and quantum yields of probes and click products; format: physicochemical; conditions: before click reaction
Experimental: Reactivity and click-activated fluorogenic properties of compounds 1a and 1b were tested by performing a Cu(I)-catalyzed azide-alkyne [3+2] cycloaddition (CuAAC) with model fucose analogs 2a and 2b, respectively, as shown in FIG. 3. […] As expected, the ligation reactions produced in a significant increase in fluorescence intensity. The emission maximum of 3a was 462 nm with a quantum yield of 0.36 when excited at 357 nm. […] Unfortunately, the reaction rate between alkyne probe 1a and azidofucose 2a was very slow. Although the reaction of azido probe 1b was completed in <30 min. only 10% of 1a was converted to 3a after 24 h by using the same conditions (monitored by LC-MS). […]
All chemicals were purchased as reagent grade and used without further purification. Reactions were monitored with analytical thin-layer chromatography (TLC) on silica gel 60 F254 plates and visualized under UV (254 nm) and/or by staining with 5% sulfuric acid or acidic ceric ammonium molybdate. ^1H— or ^13C-NMR spectra were measured on a Bruker DRX-500 or DRX-600 using CDCl3 or DMSO-d6 as the solvent (1H, 500 or 600 MHz; ^13C, 125 or 150 MHz). Chemical shifts (in ppm) were determined relative to either tetramethylsilane (0 ppm) or deuterated chloroform (77 ppm). […] Fluorescent excitation and emission were recorded using a HITACHI F-2000 fluorescence spectrophotometer. […]

[4] = test system: human alpha-1,3-fucosyltranseferases (FucTs) II-VII; assay: Standard microtiter plate assay of tolerability of GDP-fucose analogs for fucosyltransferases; format: biochemical
From the text: as §1

Structure (SMILES)	fluorescent band of labeled AGP on SDS/PAGE under UV light (365 nm) [1]	decomposition to 4-amino derivative 1c, conversion ([2]; after 12 h incubation at room temperature, without 6-alkyne fucose)	stability of probe during labeling ([2]; during AGP labeling reaction)	fluorescence of parent probe [3]	tolerability as substrate for FucTs [4]
CCN1C(=O)c2cccc3c(N=[N+]=[N-])ccc(c23)C1=O [Compound 1b, 4-Azido-N-ethyl-1,8-naphthalimide]	clear fluorescent bands	ca. 80%	slowly decomposed into a strongly fluorescent 4-amino derivative	no fluorescence	
C#C[C@@H]1O[C@H](OP(=O)(O)OP(=O)(O)OC[C@H]2O[C@@H](n3cnc4c(=O)[nH]c(N)nc43)[C@H](O)[C@@H]2O)[C@@H](O)[C@H](O)[C@@H]1O.CCN(CC)CC [Compound 8, Guanosine 5′-diphospho-6,7-deoxy-beta-L-galacto-hept-6-ynopyranoside triethylammonium salt]					confirmed
